In article PMC11052001, “A Novel IRAK4 Inhibitor DW18134 Ameliorates Peritonitis and Inflammatory Bowel Disease” (Molecules, 2024):

Molecular target: T1, IRAK4 (Homo sapiens, UniProt Q9NWZ3)
T1 sequence (Q9NWZ3 1-460): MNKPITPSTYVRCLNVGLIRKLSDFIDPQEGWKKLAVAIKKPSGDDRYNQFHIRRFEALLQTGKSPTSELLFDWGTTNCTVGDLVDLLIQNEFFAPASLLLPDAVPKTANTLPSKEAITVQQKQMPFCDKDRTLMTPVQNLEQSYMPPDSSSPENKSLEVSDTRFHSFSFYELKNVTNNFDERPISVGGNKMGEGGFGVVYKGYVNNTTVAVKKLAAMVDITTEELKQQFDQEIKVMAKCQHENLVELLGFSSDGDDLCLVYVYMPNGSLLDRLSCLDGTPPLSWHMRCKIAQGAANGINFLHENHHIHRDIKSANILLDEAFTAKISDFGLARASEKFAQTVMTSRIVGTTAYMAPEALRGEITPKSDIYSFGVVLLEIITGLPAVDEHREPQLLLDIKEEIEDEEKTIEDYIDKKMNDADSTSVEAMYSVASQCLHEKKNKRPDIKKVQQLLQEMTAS
Assay: enzymatic kinase activity assay
Assay type: biochemical
Details: read-out: DW18134

SMILES: CC1(C)Cc2cc(NC(=O)c3coc(-c4ccnc(N)c4)n3)c(-c3ccncc3)cc2O1 [DW18134]
- IC50: 11.2 ± 2 nM
